Earlier results as cited in US7615533B2, “TPO peptide compounds for treatment of anemia” (Janssen Pharmaceutica N.V., priority 2004, dated 2009).

System: rhesus monkeys exposed to 5 Gy total body irradiation
Conditions: 5 Gy total body irradiation (300-kV x-rays); cited from earlier work

human recombinant TPO: human recombinant thrombopoietin, glycoprotein; comparator in the reporter assay and cited in the background
reticulocyte regeneration initiated earlier than in placebo-treated animals: 10 days
